Consider 51 compounds from PubChem BioAssay AID1996.

Structures are written as SMILES. Converted amounts (≈) assume the structure as drawn.

The conditions of the series: buffer; pH 7.4; 200.0 µM.
The term solubility (kinetic) denotes the concentration staying in solution when a stock, usually in DMSO, is diluted into the medium. Take `CC(Oc1cccc(Cl)c1)C(=O)N1CCCN(C)CC1` (stereo unspecified): the solubility (kinetic) was more than 44.5 µg/mL.
The result for `CN1CCC(N(C)S(=O)(=O)c2ccc(NC(=O)c3ccc(S(=O)(=O)N(C)C)cc3)cc2)CC1` reads more than 74.2 µg/mL; that for `O=C(NC1CCCCC1)c1cc(-c2ccc(O)cc2)on1`, less than 0.3 µg/mL.
As for `COC(=O)CSc1nc(NC(C)C)nc(N(C)C)n1`, the kinetic solubility is 36.6 µg/mL (≈ 128 µM).
As for `O=C(c1cccc(Oc2ccc([N+](=O)[O-])cc2)c1)N1CCOCC1`, the figure is more than 49.2 µg/mL; as for `Cc1ccc(CNC(=O)COC(=O)c2cc(=O)[nH]c3ccccc23)cc1`, 5.5 µg/mL (≈ 15.7 µM); as for `OC(CN1CCN(c2ccccc2Cl)CC1)c1ccccc1` (stereo unspecified), 41.4 µg/mL (≈ 131 µM).
Consider `COc1cccc(C(=O)c2c[nH]c(C(=O)NCCCN(C)C)c2)c1`, for which the kinetic solubility is more than 49.4 µg/mL.
For the compound `Cc1ccc(C)c(N2CCN(CCN3CCCCC3)CC2)c1.Cl`, the kinetic solubility is 36.5 µg/mL.
On to `Cc1nc(-c2cccs2)sc1C(=O)O`, for which the solubility (kinetic) was more than 33.8 µg/mL.
Regarding `CCOC(=O)C1=C(N)Oc2cc(O)ccc2C1c1cccc(Cl)c1` (stereo unspecified), the kinetic solubility was less than 0.7 µg/mL.
In turn, `CC(=O)Nc1cccc(-c2csc(Nc3ccc(Cl)cn3)n2)c1` showed a solubility (kinetic) of 0.5 µg/mL (≈ 1.45 µM).
For the compound `COc1ccc(NS(=O)(=O)c2cc(NC(=O)c3ccc(S(=O)(=O)N(C)C)cc3)ccc2N2CCOCC2)cc1`, the kinetic solubility was 3.2 µg/mL (≈ 5.57 µM).
With `Cn1cnc(S(=O)(=O)NC2CCN(Cc3c(F)cccc3Cl)CC2)c1`, the kinetic solubility is more than 58 µg/mL.
As for `COC(=O)c1cccc(NC(=S)NC(C)C)c1`, the figure is more than 37.8 µg/mL; as for `Cc1cccc(NC(=O)CCn2c(=O)oc3ccccc32)c1`, 38.2 µg/mL (≈ 129 µM).
As for `COCCNC(=O)c1ccc2c(c1)ncn2-c1cccc(C)c1`, the figure is more than 46.4 µg/mL; as for `Cc1cc(/C=C(\C#N)C(=O)OCC#N)c(C)n1CC(C)C`, 13.6 µg/mL (≈ 47.7 µM); as for `Cn1cc(C(=O)N2CCCCC2)c2ccccc21`, more than 36.3 µg/mL.
The result for `CN1CCN(C(=O)CNC(=O)C23CC4CC(CC(C4)C2)C3)CC1` reads more than 47.9 µg/mL; that for `Cc1cc(=O)oc2cc(OCC(=O)N3CCC(C(N)=O)CC3)ccc12`, more than 51.7 µg/mL.
In the case of `COc1ccccc1CNC(=O)CC1Sc2ccccc2NC1=O` (stereo unspecified), the kinetic solubility was 1.7 µg/mL (≈ 4.96 µM).
On to `Cc1ccc(C(=O)NCCN2CCOCC2)c(Cl)c1`, for which the solubility (kinetic) is more than 42.4 µg/mL.
As for `O=C1CC(Cc2ccccc2)C(=O)N1c1ncccn1` (stereo unspecified), the kinetic solubility is more than 40.1 µg/mL.
As for `Cc1cc(CNC(=O)COC(=O)C2CC3CCCC(C2)C3=O)cc(C)c1O` (stereo unspecified), the figure is more than 56 µg/mL; as for `Cc1cccc([N+](=O)[O-])c1NC(=O)COC(=O)C1CCCO1` (stereo unspecified), more than 46.2 µg/mL.
The result for `CC(C)c1nc(SCC(=O)NC2CCCCC2)c2ccccc2n1` reads 1.8 µg/mL (≈ 5.24 µM); that for `CCC(Oc1ccccc1)C(=O)NCCCN1CCOCC1` (stereo unspecified), more than 46 µg/mL.
As to `O=c1nc(N2CCCC2)nc(N2CCCC2)[nH]1`, the kinetic solubility is 34.3 µg/mL (≈ 146 µM).
The result for `CCOCCCNC(=O)c1ccc(C2SCC(=O)N2Cc2ccccc2)cc1` (stereo unspecified) reads more than 59.8 µg/mL.
The result for `CS(=O)(=O)NCCCNc1ccc(C(F)(F)F)cc1[N+](=O)[O-]` reads more than 51.2 µg/mL; that for `CCN1CCN(CC(=O)Nc2cc(S(=O)(=O)N3CCCCC3)ccc2Cl)CC1.O=C(O)C(=O)O`, more than 77.9 µg/mL.
`O=C(c1ccc([N+](=O)[O-])s1)N1CCN(c2ccccn2)CC1` gave a solubility (kinetic) of 42.7 µg/mL (≈ 134 µM).
The result for `Cc1ccc(NC(=O)C(c2ccccc2)N(C)C)cc1Cl` (stereo unspecified) reads 28.3 µg/mL (≈ 93.5 µM); that for `CC1(C)C2CC=C(/C=N/NC(=O)C(N)=O)C1C2` (stereo unspecified), more than 35.3 µg/mL; that for `CN1C(=O)NC(c2cccc(F)c2)C2=C1CC(C)(C)CC2=O` (stereo unspecified), more than 45.4 µg/mL.
Regarding `O=C(NCC1CCCO1)C1CC(=O)N(c2ccc(Cl)cc2)C1` (stereo unspecified), the solubility (kinetic) is more than 48.4 µg/mL.
As for `Cc1ccsc1C(=O)NC1CCCCC1C` (stereo unspecified), the figure is more than 35.6 µg/mL.
`O=C(Oc1ccccc1)N1CCN(c2ccccc2F)CC1` gave a solubility (kinetic) of 39.5 µg/mL (≈ 132 µM).
The result for `O=C(COC(=O)c1cc[n+]([O-])cc1)Nc1cccc(F)c1` reads more than 43.5 µg/mL; that for `Cc1nccc(-c2cccc(NC(=O)c3ccccc3Cl)c2)n1`, 35 µg/mL (≈ 108 µM); that for `CCN(CC(=O)NC1CCS(=O)(=O)C1)S(=O)(=O)c1ccccc1Cl` (stereo unspecified), more than 59.2 µg/mL.
With `Cc1c(C(=O)Nc2nccs2)oc2ccc(F)cc12`, the kinetic solubility stood at 3.1 µg/mL (≈ 11.2 µM).
As for `CCCCNC(=O)COC(=O)c1ccc(F)cc1Cl`, the figure is more than 43.2 µg/mL; as for `CC(Sc1nnc2ccccn12)C(=O)Nc1ccc(N2CCOCC2)cc1` (stereo unspecified), more than 57.5 µg/mL.
As for `COC(OC)c1ccnc(SCc2ccccc2Cl)n1`, the figure is 17.6 µg/mL (≈ 56.6 µM); as for `CC(=O)Nc1ccc(S(=O)(=O)NCCCN2CCOCC2)cc1`, 46.3 µg/mL (≈ 136 µM).
As for `CC(=O)Nc1ccc(NS(=O)(=O)c2ccc(C)cc2)cc1[N+](=O)[O-]`, the figure is more than 52.4 µg/mL; as for `O=S(=O)(CCNCc1cccs1)c1ccc(Cl)cc1`, 32.5 µg/mL (≈ 103 µM).
In turn, `CN(CC(=O)Nc1ccc(F)cc1[N+](=O)[O-])C1CCS(=O)(=O)C1` (stereo unspecified) came in with a solubility (kinetic) of more than 51.8 µg/mL.
As for `CS(=O)(=O)N1CCC(C(=O)Nc2ccc(Cl)cc2)CC1`, the figure is 13.4 µg/mL (≈ 42.3 µM).
